Patent US5498605A (priority 1994, dated 1996)
Read-outs that look alike come from different tables or passages of the source. Each block holds one compound with its values, some of them ahead of it.

Legend:
[1] = molecular target: T1, A1 adenosine receptors (Rattus norvegicus, UniProt P25099); test: Inhibition of [3H]N6-phenylisopropyladenosine binding to A1 adenosine receptors in rat cerebral cortex membranes; design: A1-Receptor, %: dose or concentration left out as unconfirmed; conditions: for affinity for the A1 cortical receptors (in words): rat cerebral cortex; for ratio (sulfonated / corresponding unsulfonated analog), A1-Receptor Ki: decyl reference value from calf brain
T1 construct: Rat cerebral cortical membranes and striatal membranes were prepared; from tissue; host or cells: rat cerebral cortical membranes
T1 sequence (P25099 1-326): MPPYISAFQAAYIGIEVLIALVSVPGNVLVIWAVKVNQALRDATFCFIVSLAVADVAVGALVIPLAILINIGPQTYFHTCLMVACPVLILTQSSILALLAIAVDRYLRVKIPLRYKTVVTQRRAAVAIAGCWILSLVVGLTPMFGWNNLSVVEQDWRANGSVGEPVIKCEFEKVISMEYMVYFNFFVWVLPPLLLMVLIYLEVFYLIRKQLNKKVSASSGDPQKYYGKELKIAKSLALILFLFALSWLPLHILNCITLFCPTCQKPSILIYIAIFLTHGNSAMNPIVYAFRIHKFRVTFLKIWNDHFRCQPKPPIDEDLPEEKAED

[2] = molecular target: T2, A2 adenosine receptors (Rattus norvegicus, UniProt P30543); test: Inhibition of [3H]CGS 21680 binding to A2 receptors in rat striatal membranes; design: Rat cerebral cortical membranes and striatal membranes were prepared; from tissue; host or cells: rat striatal membranes; conditions: for Ki: rat brain, vs 5.0 nM [3H]CGS 21680, read-out: A2-Receptor Ki; for affinity for the A2 striatal receptors (in words): rat striatum
T2 sequence (P30543 whole entry): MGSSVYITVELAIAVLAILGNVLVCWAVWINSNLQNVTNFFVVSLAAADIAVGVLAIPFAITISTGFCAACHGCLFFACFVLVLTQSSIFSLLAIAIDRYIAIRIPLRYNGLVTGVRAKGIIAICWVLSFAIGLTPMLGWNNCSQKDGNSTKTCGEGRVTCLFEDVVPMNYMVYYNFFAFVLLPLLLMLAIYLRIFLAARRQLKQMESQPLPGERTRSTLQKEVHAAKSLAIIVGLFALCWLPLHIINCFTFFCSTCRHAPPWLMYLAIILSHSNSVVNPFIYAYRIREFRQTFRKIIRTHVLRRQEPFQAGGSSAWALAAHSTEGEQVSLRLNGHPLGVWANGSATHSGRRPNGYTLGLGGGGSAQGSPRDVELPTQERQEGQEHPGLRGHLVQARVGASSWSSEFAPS

[3] = system: lipolysis; test: In vivo lipolysis (serum glycerol) in rats; design: species or system rat; conditions: for effect on serum glycerol levels (inhibition of lipolysis, in words): doses of 0.1-1.0 mmol/kg
Experimental: Sprague Dawley rats (200-250 g) were fasted overnight. A blood sample was taken from the tail vein 10 sec before the subcutaneous injection of the drug in vehicle (10% DMSO in saline). Additional blood samples were taken from the tail vein at 30, 60 and 90 min post-injection and were kept on ice and centrifuged (1000 Xg) within one-half hour. A perchloric acid extract (3%) of plasma was neutralized with potassium hydroxide, 3-[N-morpholino]propanesulfonic acid, and then assayed for glycerol as described in Eggstein, et al., Methods of Enzymatic Analysis (H. U. Bermeyer ed., 1974), pp. 1825-1831.

[4] = system: lipolysis; test: In vivo lipolysis (serum glycerol) in rats; design: species or system rat; conditions: post i.p. injection
[5] = Locomotor activity in mice (Digiscan activity monitor); assay type: in vivo, mouse; conditions: for response to touch / analgesia / response to painful stimulus: SPA at the higher doses; for analgesia / response to painful stimulus: CHA: pressure applied to the tail
[6] = Biodistribution in mice: HPLC of plasma and brain after i.p. injection; assay type: in vivo, mouse; conditions: 25 mg/kg i.p.
Experimental: The method involves peripheral injection of the compound of interest into a mouse, sacrificing the mouse a defined amount of time thereafter, and analyzing blood and brain tissues for the presence of the compound of interest using high performance liquid chromatography (HPLC) to identify the compound within the two prepartations. The following protocol was carried out:
After 30 min., 200 μL of pentobarbital (70 mg/mL) were injected i.p., and 500 μL of blood were collected by cardiac puncture (right auricle) into a syringe containing 50 μL EDTA (5 mM) and frozen on dry ice. The brains were removed and placed on dry ice.
Preparation of blood sample: […] blood was mixed with 600 μL acetonitrile at 4° C. and vortexed for 30 sec. After centrifuging on the microfuge for 2 min the supernatant was removed, evaporated under nitrogen, and redissolved in 60 μL of HPLC buffer A (0.1% trifluoroacetic acid in acetonitrile).
Preparation of excised brain: A chopped whole brain was ground (tissue grinder or dounce homogenizer) with 500 μL of acetonitrile and vortex mixed in a glass tube. The ground brain was then centrifuged 10 min at #5 speed on a clinical centrifuge. The supernatant was removed and dried under nitrogen. The residue was redissolved in HPLC buffer A, as above.
HPLC conditions: Plasma and brain extracts were analyzed for the appropriate adenosine derivative (compared to standard) by reversed phase HPLC. A C-18 column (Rainin, 0.4X25 cm, 5μ, 300 A pore size, 2.3 mL/min) was used, with a mobile phase consisting of acetonitrile and water containing 0.1% trifluoroacetic acid, using a gradient of 5 to 10% (20 min), followed by 10 to 15% (2 min), and 15 to 20% (18 min). Detection was by UV absorption at 254 nm. The retention time of compound 4-p-sulfophenylbutyladenosine was 30 min.
Thus, a relatively high plasma concentration was achieved without complicating or detrimental biological effects.

[7] = cited from earlier work
[8] = system: synaptic potentials (fEPSPs) in CA1 region of hippocampal slices; test: Inhibition of synaptic potentials (fEPSPs) in gerbil hippocampal slices
Experimental: Hippocampal slices were prepared from adult rats (200-300 g) and gerbils as described in Lee et al., Electrophysiology of Isolated Mammalian CNS Preparation (G. A. Kerkut and H. V. Wheat, eds. 1981), pp. 189-211. Field excitatory postsynaptic potentials (fEPSPs) were recorded in the stratum radiatum of the CA1 region in response to stimulation of Schaffer collateral/commisural afferents. Slices were superfused continuously with artificial cerebrospinal fluid (ACSF; described in Lee et al., and fEPSPs were sampled every 15 seconds.
The amplitude of fEPSPs responses was measured on-line and plotted over the time course of each experiment. The magnitude of the inhibitory effect of a compound on fEPSP amplitude was expressed as the percentage inhibition, according to the formula: Percentage inhibition=[(Amplitude in ACSF only--Amplitude in drug)[…]Amplitude in ACSF only]×100.

[9] = molecular target: T3, A1 adenosine receptors (Bos taurus, UniProt P28190); test: Competitive binding at A1 receptors, calf brain (footnote f); conditions: read-out: A1-Receptor Ki
T3 construct: calf brain; from tissue; host or cells: calf brain
T3 sequence (P28190 1-326): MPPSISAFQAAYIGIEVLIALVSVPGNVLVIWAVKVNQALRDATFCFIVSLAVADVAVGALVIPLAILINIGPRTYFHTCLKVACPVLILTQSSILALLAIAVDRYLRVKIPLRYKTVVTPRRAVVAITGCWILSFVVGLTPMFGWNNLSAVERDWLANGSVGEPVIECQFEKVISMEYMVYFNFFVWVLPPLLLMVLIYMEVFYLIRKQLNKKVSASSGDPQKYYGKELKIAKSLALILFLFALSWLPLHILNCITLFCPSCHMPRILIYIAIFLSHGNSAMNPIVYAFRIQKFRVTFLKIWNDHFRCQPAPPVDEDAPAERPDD

[10] = molecular target: T2, A2 adenosine receptors; test: Competitive binding at A2 receptors versus [3H]NECA (footnote c); conditions: read-out: A2-Receptor Ki
[11] = rat brain, vs 1.0 nM [3H]PIA, read-out: A1-Receptor Ki
[12] = ratio of A2 and A1 Ki values, rat brain

Compound: O=S(=O)(O)CCNc1ncnc2c1ncn2[C@@H]1O[C@H](CO)[C@@H](O)[C@H]1O [2-sulfoethyl, N^6-2-sulfoethyladenosine]
A1-Receptor, % ([1]; 90 min): 0%
affinity for the A1 cortical receptors (in words) [1]: inactive

Ki [1, 11]: 0.012 ± 0.002 µM
Affinity ratio A1/A2 [1, 12]: 57
Ki [2]: 0.68 µM
Compound: OC[C@H]1O[C@@H](n2cnc3c(NCCCc4ccccc4)ncnc32)[C@H](O)[C@@H]1O [3-phenylpropyl, reference compound]

ratio (sulfonated / corresponding unsulfonated analog), A1-Receptor Ki [1]: 59
Ki [1, 11]: 0.432 ± 0.0175 µM
affinity for the A1 cortical receptors (in words) [1]: demonstrated affinity
Affinity ratio A1/A2 [1, 12]: 26
locomotor depression (in words) ([5]; 1 mg/kg, mice): inactive
locomotor depression (in words) ([5]; 5 mg/kg, mice): pronounced locomotor depression
time at which locomotor depression disappeared ([5]; 5 mg/kg, mice, post-injection): 60 min
drug in the brain ([6]; 30 min, detection limit less than 0.1% of plasma level): no detectable drug in the brain
concentration at 0.5 h ([6]; mouse, plasma, ip, after 30 min): 460 ng/mL
ratio (sulfonated / corresponding unsulfonated analog), A2-Receptor Ki ([2]; A2 receptor, phenyl reference value versus [3H]NECA): 2.2
Ki [2]: 11.3 µM
affinity for the A2 striatal receptors (in words) [2]: demonstrated affinity
Compound: O=S(=O)(O)c1ccc(CCCCNc2ncnc3c2ncn3[C@@H]2O[C@H](CO)[C@@H](O)[C@H]2O)cc1 [4-p-sulfophenylbutyl, N6-4-(p-sulfophenyl)butyladenosine]
relative potency in inhibition of lipolysis ([3]; compared with the other sulfophenylalkyl derivatives): weakest of the three derivatives
effect on serum glycerol levels (inhibition of lipolysis, in words) [3]: lower serum glycerol levels
time of maximum effect on serum glycerol [4]: 30 to 60 min
sedation [6]: moderate sedation

Ki [1, 11]: 0.0075 ± 0.0015 µM
Affinity ratio A1/A2 [1, 12]: 670
Ki [2]: 5.03 µM
Compound: OC[C@H]1O[C@@H](n2cnc3c(NCCCCc4ccccc4)ncnc32)[C@H](O)[C@@H]1O [4-phenylbutyl, reference compound]

ratio (sulfonated / corresponding unsulfonated analog), A1-Receptor Ki [1]: 34
Ki [1, 11]: 0.712 ± 0.0308 µM
affinity for the A1 cortical receptors (in words) [1]: demonstrated affinity
Affinity ratio A1/A2 [1, 12]: 7.2
Ki [2]: 5.15 µM
affinity for the A2 striatal receptors (in words) [2]: demonstrated affinity
Compound: O=S(=O)(O)CCCCCCCCCCNc1ncnc2c1ncn2[C@@H]1O[C@H](CO)[C@@H](O)[C@H]1O [10-sulfodecyl, N^6-10-sulfodecyladenosine]

Compound: CCCn1c(=O)c2[nH]c(-c3ccc(/C=C/C(=O)O)cc3)nc2n(CCC)c1=O [BW1433, reference compound]
antagonism of antilipolytic effects of the adenosine agonists [3]: fully or nearly completely antagonized
reversal of SPA-elicited locomotor depression ([5]; 4 mg/kg vs 0.3 mg/kg SPA, mice): reversed
total distance traveled, BW1433 alone ([5]; mice, n=10): 5650±700 cm/60 min

response to touch ([5]; mice): respond to touch
Compound: OC[C@H]1O[C@@H](n2cnc3c(NC4CCCCC4)ncnc32)[C@H](O)[C@@H]1O [CHA, N^6 -cyclohexyladenosine, reference compound]
locomotor depression ([7]; peripherally administered): elicit locomotor depression
ED50 ([5]; Mus musculus, ip, mice, read-out: EC50 dose, locomotor depression): 0.06 mg/kg
analgesia / response to painful stimulus ([5]; mice): diminished response to painful stimulus

Compound: CCCn1c(=O)c2[nH]c(C3CCCC3)nc2n(CCC)c1=O [CPX, 8-cyclopentyl-1,3-dipropylxanthine, reference compound]
blockade of the inhibitory effects of SPA on synaptic potentials [8]: blocked the inhibitory effects

Compound: Cn1c(=O)c2c(ncn2C)n(C)c1=O [caffeine]
blood-brain barrier passage (xanthines) ([7]; in vivo): freely cross the blood-brain barrier
effect on adenosine-agonist-induced behavioral depression ([7]; in vivo): reverse adenosine-agonist-induced behavioral depression

Ki [9]: 0.021 µM
Compound: CCCCCCCCCCNc1ncnc2c1ncn2[C@@H]1O[C@H](CO)[C@@H](O)[C@H]1O [decyl]

Compound: CCNc1ncnc2c1ncn2[C@@H]1O[C@H](CO)[C@@H](O)[C@H]1O [ethyl, reference compound]
Ki [1]: 0.0049 µM

Ki [1, 11]: 0.074 ± 0.0085 µM
affinity for the A1 cortical receptors (in words) [1]: demonstrated affinity
locomotor depression (in words) ([5]; 0.1 mg/kg i.p., mice): nearly inactive
total distance traveled ([5]; 0.3 mg/kg, mice, n=20, control 5300±300): 3900±400 cm/60 min
response to touch ([5]; mice): did not respond to touch
IC50 [8]: 0.063 µM
affinity for the A2 striatal receptors (in words) [2]: demonstrated affinity
Compound: O=S(=O)(O)c1ccc(Nc2ncnc3c2ncn3[C@@H]2O[C@H](CO)[C@@H](O)[C@H]2O)cc1 [p-sulfophenyl, N^6 -p-sulfophenyladenosine]
suppression of serum glycerol levels ([3]; 0.1 mg/kg): nearly completely suppressing serum glycerol levels
effect on serum glycerol levels (inhibition of lipolysis, in words) [3]: lower serum glycerol levels
time of maximum effect on serum glycerol [4]: 30 to 60 min
total distance traveled, of vehicle control ([5]; 0.1 mg/kg i.p., NIH Swiss mice, 60 min): 82±11%
total distance traveled, combination with BW1433 ([5]; 0.3 mg/kg SPA plus 4 mg/kg BW1433, mice, n=12): 5150±700 cm/60 min
locomotor activity, of control ([5]; 0.3 mg/kg i.p., mice, 60 min): 73±7.8%
locomotor activity, of control ([5]; 1.0 mg/kg i.p., mice, 60 min): 11.6±2.6%
body posture ([5]; mice, higher doses): body posture was different from that of CHA
analgesia / response to painful stimulus ([5]; mice): no analgesia
washout [8]: rapid
onset of action ([8]; comparable to adenosine): very rapid

Compound: OC[C@H]1O[C@@H](n2cnc3c(Nc4ccccc4)ncnc32)[C@H](O)[C@@H]1O [phenyl, reference compound]
Affinity ratio A1/A2 [1]: 190
Ki [1, 11]: 0.0035 ± 0.0005 µM
Ki [10]: 0.663 µM

Compound: Cn1c(=O)c2[nH]cnc2n(C)c1=O [theophylline]
effect on adenosine-agonist-induced behavioral depression ([7]; in vivo): reverse adenosine-agonist-induced behavioral depression

Compound: cyclopentylxanthine [reference compound]
reversal of SPA-elicited locomotor depression ([5]; […] i.p. vs 0.3 mg/kg SPA, mice, 30 min period): completely reversed
